The assay addresses T1, HiBiT tagged PARP14 (Homo sapiens, UniProt Q460N5).
T1 construct: engineered to contain a HiBiT tag on both alleles of the PARP14 gene; endogenous in cells; host or cells: Jurkat cells stably transfected with LgBiT (Promega), PARP14 locus edited by CRISPR/Cas9
Briefly: HiBiT assay for the degradation of PARP14 (HiBiT tagged PARP14 in LgBiT expressing Jurkat cells, 2 or 24 hours). The assay is classed as cell-based. The note with it: Assay B (Example B): HiBiT tagged PARP14 degradation in LgBiT expressing Jurkat cells. As to the method:
Jurkat cells stably transfected with LgBiT (Promega) were engineered to contain a HiBiT tag on both alleles of the PARP14 gene (Genbank Accession Number: NM_017554) via CRISPR/Cas9 editing. The HiBiT tag is an 11 amino acid tag created by Promega that associates with LgBiT protein to form the NanoLuc® tag on the C-terminus of PARP14. Clones were isolated and confirmed for the HiBiT tag via Sanger sequencing.
Degradation of PARP14 protein was assessed by measuring the luminescence of the HiBiT tag associating with the LgBiT protein as a proxy for the PARP14 protein.
Jurkat cells were diluted to 250,000 cells per mL and then added to assay plate (Corning 3574) using a Multidrop (Thermo Fisher) to add 20 μL per well of the 384 well plate, resulting in 5,000 cells per well. 20 nL of a dose response curve diluted in DMSO of each test compound was added to the cell plate using a Mosquito (TTP Labtech) and the plate was incubated at 37° C. for 2 or 24 hours. Assay plate was brought to room temperature then 5 μL per well of Live Cell Substrate (Promega) was added to the plate. Luminescence was measured on an Envision (Perkin Elmer).
The average DMSO was calculated from 32 wells containing 0.1% DMSO only in columns 12 and 24 of the assay plate. The % of DMSO values were calculated as described below: […]
The % of DMSO values were plotted as a function of compound concentration and the following 4-parameter fit was applied to derive the DC50 values:
where top, bottom, and Hill Coefficient are allowed to float. Y is the % of DMSO and X is the compound concentration.
DC50 data for the Example compounds is provided below in Table 2 (“+” is ≤0.03 μM; “++” is ≥0.03 μM).
(The HiBiT peptide binds its large partner to form an active luciferase.)

The structures appear in SMILES notation. Counter-ions that a name gives are not always drawn. Like-named read-outs stand apart in the source and are kept apart here.

T1 sequence (Q460N5 whole entry): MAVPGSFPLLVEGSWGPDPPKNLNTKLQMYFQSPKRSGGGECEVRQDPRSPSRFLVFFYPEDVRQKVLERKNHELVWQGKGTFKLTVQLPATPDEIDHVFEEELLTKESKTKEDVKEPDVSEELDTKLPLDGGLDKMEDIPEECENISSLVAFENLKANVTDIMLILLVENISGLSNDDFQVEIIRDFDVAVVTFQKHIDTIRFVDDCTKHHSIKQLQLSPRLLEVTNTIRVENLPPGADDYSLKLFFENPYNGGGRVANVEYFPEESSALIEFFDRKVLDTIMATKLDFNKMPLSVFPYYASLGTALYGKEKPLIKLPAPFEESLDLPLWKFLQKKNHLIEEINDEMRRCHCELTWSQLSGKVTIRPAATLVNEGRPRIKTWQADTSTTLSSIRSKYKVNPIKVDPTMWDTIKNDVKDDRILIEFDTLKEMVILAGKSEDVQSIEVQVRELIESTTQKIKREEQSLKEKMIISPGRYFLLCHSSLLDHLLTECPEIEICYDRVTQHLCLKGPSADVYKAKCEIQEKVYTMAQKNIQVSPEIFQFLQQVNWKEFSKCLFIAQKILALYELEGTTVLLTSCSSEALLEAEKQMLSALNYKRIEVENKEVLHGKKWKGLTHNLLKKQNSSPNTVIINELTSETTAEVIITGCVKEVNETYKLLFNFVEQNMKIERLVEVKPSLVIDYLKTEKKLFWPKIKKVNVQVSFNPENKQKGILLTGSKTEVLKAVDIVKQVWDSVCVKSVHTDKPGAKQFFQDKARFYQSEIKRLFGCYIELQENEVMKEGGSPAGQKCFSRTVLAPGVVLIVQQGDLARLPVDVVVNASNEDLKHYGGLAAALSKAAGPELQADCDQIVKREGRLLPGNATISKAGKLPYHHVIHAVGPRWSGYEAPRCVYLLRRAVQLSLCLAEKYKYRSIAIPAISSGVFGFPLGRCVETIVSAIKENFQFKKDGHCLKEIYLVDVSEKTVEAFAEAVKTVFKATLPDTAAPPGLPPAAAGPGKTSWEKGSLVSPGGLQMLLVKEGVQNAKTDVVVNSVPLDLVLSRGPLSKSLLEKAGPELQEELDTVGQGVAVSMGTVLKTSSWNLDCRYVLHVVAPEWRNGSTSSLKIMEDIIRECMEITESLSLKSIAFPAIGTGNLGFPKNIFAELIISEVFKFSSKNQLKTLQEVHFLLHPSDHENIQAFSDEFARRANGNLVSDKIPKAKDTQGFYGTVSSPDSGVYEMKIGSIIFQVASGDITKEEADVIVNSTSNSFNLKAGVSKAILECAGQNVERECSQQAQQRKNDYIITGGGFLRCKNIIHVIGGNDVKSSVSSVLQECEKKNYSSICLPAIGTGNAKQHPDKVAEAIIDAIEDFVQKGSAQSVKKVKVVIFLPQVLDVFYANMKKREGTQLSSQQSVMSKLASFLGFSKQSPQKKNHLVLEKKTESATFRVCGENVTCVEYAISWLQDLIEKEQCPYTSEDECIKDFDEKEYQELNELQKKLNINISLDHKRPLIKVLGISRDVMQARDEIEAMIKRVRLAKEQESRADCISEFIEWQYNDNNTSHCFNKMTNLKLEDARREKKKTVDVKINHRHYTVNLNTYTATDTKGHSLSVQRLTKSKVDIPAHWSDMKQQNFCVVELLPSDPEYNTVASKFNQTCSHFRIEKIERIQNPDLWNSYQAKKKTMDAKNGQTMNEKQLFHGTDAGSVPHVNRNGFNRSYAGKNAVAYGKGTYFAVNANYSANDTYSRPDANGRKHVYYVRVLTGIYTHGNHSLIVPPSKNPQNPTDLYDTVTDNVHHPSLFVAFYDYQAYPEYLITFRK

For `O=C1CCC(Nc2ccc(N3CCN(CCN4CCC(COc5cc(F)c6c(=O)[nH]c(COC7CCOCC7)nc6c5)CC4)CC3)c(F)c2)C(=O)N1` (racemic) [Example 99, 3-((3-fluoro-4-(4-(2-(4-(((5-fluoro-4-oxo-2-(((tetrahydro-2H-pyran-4-yl)oxy)methyl)-3,4-dihydroquinazolin-7-yl)oxy)methyl)piperidin-1-yl)ethyl)piperazin-1-yl)phenyl)amino)piperidine-2,6-dione], the DC50 (usually the midpoint of the concentration-degradation curve) is under 30 nM. As to `O=C1CCC(Nc2ccc(N3CCN(CCN4CCC(COc5cc(F)c6c(=O)[nH]c(CSC7CCOCC7)nc6c5)CC4)CC3)c(F)c2)C(=O)N1` (single isomer, unassigned) [Example 64a, 3-((3-fluoro-4-(4-(2-(4-(((5-fluoro-4-oxo-2-(((tetrahydro-2H-pyran-4-yl)thio)methyl)-3,4-dihydroquinazolin-7-yl)oxy)methyl)piperidin-1-yl)ethyl)piperazin-1-yl)phenyl)amino)piperidine-2,6-dione], the DC50 (read-out: DC50) is under 30 nM. As to `O=C1CCC(Nc2ccc(N3CCN(CCN4CCC(COc5cc(F)c6c(=O)[nH]c(CSC7CCOCC7)nc6c5)CC4)CC3)c(F)c2)C(=O)N1` (single isomer, unassigned) [Example 64b, 3-((3-fluoro-4-(4-(2-(4-(((5-fluoro-4-oxo-2-(((tetrahydro-2H-pyran-4-yl)thio)methyl)-3,4-dihydroquinazolin-7-yl)oxy)methyl)piperidin-1-yl)ethyl)piperazin-1-yl)phenyl)amino)piperidine-2,6-dione], under “read-out: DC50”, the DC50 was under 30 nM. Turning to `O=C1CCC(Nc2ccc(N3CCN(CCN4CCC(COc5cc(F)c6c(=O)[nH]c(COC7CCOCC7)nc6c5)CC4)CC3)c(F)c2)C(=O)N1` (single isomer, unassigned) [Example 99a, 3-((3-fluoro-4-(4-(2-(4-(((5-fluoro-4-oxo-2-(((tetrahydro-2H-pyran-4-yl)oxy)methyl)-3,4-dihydroquinazolin-7-yl)oxy)methyl)piperidin-1-yl)ethyl)piperazin-1-yl)phenyl)amino)piperidine-2,6-dione], where the note is “read-out: DC50”, the DC50 was under 30 nM. Same read-out and setting: the same measure for `O=C1CCC(Nc2ccc(N3CCN(CCN4CCC(COc5cc(F)c6c(=O)[nH]c(COC7CCOCC7)nc6c5)CC4)CC3)c(F)c2)C(=O)N1` (single isomer, unassigned) [Example 99b, 3-((3-fluoro-4-(4-(2-(4-(((5-fluoro-4-oxo-2-(((tetrahydro-2H-pyran-4-yl)oxy)methyl)-3,4-dihydroquinazolin-7-yl)oxy)methyl)piperidin-1-yl)ethyl)piperazin-1-yl)phenyl)amino)piperidine-2,6-dione]: under 30 nM; for `O=C1CCC(Nc2ccc(N3CCC(N4CC(N5CCC(COc6cc(F)c7c(=O)[nH]c(CSC8CCOCC8)nc7c6)CC5)C4)CC3)c(F)c2)C(=O)N1` (single isomer, unassigned) [Example 116a, 3-((3-fluoro-4-(4-(3-(4-(((5-fluoro-4-oxo-2-(((tetrahydro-2H-pyran-4-yl)thio)methyl)-3,4-dihydroquinazolin-7-yl)oxy)methyl)piperidin-1-yl)azetidin-1-yl)piperidin-1-yl)phenyl)amino)piperidine-2,6-dione]: under 30 nM; for `O=C1CCC(Nc2ccc(N3CCC(N4CC(N5CCC(COc6cc(F)c7c(=O)[nH]c(CSC8CCOCC8)nc7c6)CC5)C4)CC3)c(F)c2)C(=O)N1` (single isomer, unassigned) [Example 116b, 3-((3-fluoro-4-(4-(3-(4-(((5-fluoro-4-oxo-2-(((tetrahydro-2H-pyran-4-yl)thio)methyl)-3,4-dihydroquinazolin-7-yl)oxy)methyl)piperidin-1-yl)azetidin-1-yl)piperidin-1-yl)phenyl)amino)piperidine-2,6-dione]: under 30 nM. As for `O=C1CCC(Nc2ccc(N3CCC(N4CCC(COc5cc(F)c6c(=O)[nH]c(CCC7CCOCC7)nc6c5)CC4)CC3)c(F)c2)C(=O)N1` (single isomer, unassigned) [Example 117a, 3-((3-fluoro-4-(4-(((5-fluoro-4-oxo-2-(2-(tetrahydro-2H-pyran-4-yl)ethyl)-3,4-dihydroquinazolin-7-yl)oxy)methyl)-[1,4′-bipiperidin]-11′-yl)phenyl)amino)piperidine-2,6-dione], the DC50 (read-out: DC50) is under 30 nM.

Turning to `O=C1CCC(Nc2ccc(N3CCC(N4CCC(COc5cc(F)c6c(=O)[nH]c(CCC7CCOCC7)nc6c5)CC4)CC3)c(F)c2)C(=O)N1` (single isomer, unassigned) [Example 117b, 3-((3-fluoro-4-(4-(((5-fluoro-4-oxo-2-(2-(tetrahydro-2H-pyran-4-yl)ethyl)-3,4-dihydroquinazolin-7-yl)oxy)methyl)-[1,4′-bipiperidin]-11′-yl)phenyl)amino)piperidine-2,6-dione], where the note is “read-out: DC50”, the DC50 was under 30 nM.

As for `O=C1CCC(Nc2ccc(N3CCC(N4CC(N5CCC(COc6cc(F)c7c(=O)[nH]c(COC8CCOCC8)nc7c6)CC5)C4)CC3)c(F)c2)C(=O)N1` (single isomer, unassigned) [Example 136a, 3-((3-fluoro-4-(4-(3-(4-(((5-fluoro-4-oxo-2-(((tetrahydro-2H-pyran-4-yl)oxy)methyl)-3,4-dihydroquinazolin-7-yl)oxy)methyl)piperidin-1-yl)azetidin-1-yl)piperidin-1-yl)phenyl)amino)piperidine-2,6-dione], the DC50 (read-out: DC50) is under 30 nM. Still for that read-out and setting: the same measure for `O=C1CCC(Nc2ccc(N3CCC(N4CC(N5CCC(COc6cc(F)c7c(=O)[nH]c(COC8CCOCC8)nc7c6)CC5)C4)CC3)c(F)c2)C(=O)N1` (single isomer, unassigned) [Example 136b, 3-((3-fluoro-4-(4-(3-(4-(((5-fluoro-4-oxo-2-(((tetrahydro-2H-pyran-4-yl)oxy)methyl)-3,4-dihydroquinazolin-7-yl)oxy)methyl)piperidin-1-yl)azetidin-1-yl)piperidin-1-yl)phenyl)amino)piperidine-2,6-dione]: under 30 nM. As for `Cn1c(=O)n(C2CCC(=O)NC2=O)c2ccc(N3CCN(CCN4CCC(COc5cc(F)c6c(=O)[nH]c(CSC7CCOCC7)nc6c5)CC4)CC3)cc21` (centres unmarked) [Example 91, 3-(5-(4-(2-(4-(((5-fluoro-4-oxo-2-(((tetrahydro-2H-pyran-4-yl)thio)methyl)-3,4-dihydroquinazolin-7-yl)oxy)methyl)piperidin-1-yl)ethyl)piperazin-1-yl)-3-methyl-2-oxo-2,3-dihydro-1H-benzo[d]imidazol-1-yl)piperidine-2,6-dione], under “read-out: DC50”, the DC50 is under 30 nM. Same read-out and setting: the figure for `O=C1CCC(Nc2ccc3c(c2)CN(CCN2CCC(COc4cc(F)c5c(=O)[nH]c(CSC6CCOCC6)nc5c4)CC2)C3)C(=O)N1` (centres unmarked) [Example 92, 3-((2-(2-(4-(((5-fluoro-4-oxo-2-(((tetrahydro-2H-pyran-4-yl)thio)methyl)-3,4-dihydroquinazolin-7-yl)oxy)methyl)piperidin-1-yl)ethyl)isoindolin-5-yl)amino)piperidine-2,6-dione] is under 30 nM; for `O=C1CCC(NC(=O)c2ccc(N3CCN(CCN4CCC(COc5cc(F)c6c(=O)[nH]c(CSC7CCOCC7)nc6c5)CC4)CC3)cc2F)C(=O)N1` (centres unmarked) [Example 93, N-(2,6-dioxopiperidin-3-yl)-2-fluoro-4-(4-(2-(4-(((5-fluoro-4-oxo-2-(((tetrahydro-2H-pyran-4-yl)thio)methyl)-3,4-dihydroquinazolin-7-yl)oxy)methyl)piperidin-1-yl)ethyl)piperazin-1-yl)benzamide] it is under 30 nM; for `O=C1CCC(Nc2ccc(N3CCN(CCN4CCC(COc5cc(F)c6c(=O)[nH]c(CSC7CCOCC7)nc6c5)CC4)CC3)cc2F)C(=O)N1` (centres unmarked) [Example 97, 3-((2-fluoro-4-(4-(2-(4-(((5-fluoro-4-oxo-2-(((tetrahydro-2H-pyran-4-yl)thio)methyl)-3,4-dihydroquinazolin-7-yl)oxy)methyl)piperidin-1-yl)ethyl)piperazin-1-yl)phenyl)amino)piperidine-2,6-dione] it is under 30 nM. The same measure, in the same setting: the figure for `O=C1CCC(Nc2cc(F)c(N3CCN(CCN4CCC(COc5cc(F)c6c(=O)[nH]c(CSC7CCOCC7)nc6c5)CC4)CC3)c(F)c2)C(=O)N1` (centres unmarked) [Example 98, 3-((3,5-difluoro-4-(4-(2-(4-(((5-fluoro-4-oxo-2-(((tetrahydro-2H-pyran-4-yl)thio)methyl)-3,4-dihydroquinazolin-7-yl)oxy)methyl)piperidin-1-yl)ethyl)piperazin-1-yl)phenyl)amino)piperidine-2,6-dione formate] is under 30 nM. As for `O=C1CCC(Nc2ccc(N3CCN(CCN4CCC(COc5cc(F)c6c(=O)[nH]c(CCC7CCOCC7)nc6c5)CC4)CC3)c(F)c2)C(=O)N1` (centres unmarked) [Example 100, 3-((3-fluoro-4-(4-(2-(4-(((5-fluoro-4-oxo-2-(2-(tetrahydro-2H-pyran-4-yl)ethyl)-3,4-dihydroquinazolin-7-yl)oxy)methyl)piperidin-1-yl)ethyl)piperazin-1-yl)phenyl)amino)piperidine-2,6-dione], the DC50 (read-out: DC50) was under 30 nM.

Source of the values: patent publication US20240101540A1, “TARGETED PROTEIN DEGRADATION OF PARP14 FOR USE IN THERAPY” (Ribon Therapeutics, Inc., priority 2022, published 2024).
